Converted amounts (≈) assume the structure as drawn.
Key:
E. coli [1] = assay: E-test susceptibility; assay type: cell-based, Escherichia coli
K. pneumoniae [2] = assay: E-test susceptibility; assay type: cell-based, Klebsiella pneumoniae
K. pneumoniae [3] = assay: MIC; assay type: cell-based, Klebsiella pneumoniae
Klebsiella = assay: SMART 2003 Europe, microdilution; assay type: cell-based, Klebsiella spp.; settings: 341 isolates
E. coli [4] = assay: SMART 2003 Europe, microdilution; assay type: cell-based, Escherichia coli; settings: 1106 isolates
[5] = test system: inducible Enterobacteriaceae; assay: SMART 2003, intraabdominal isolates; assay type: cell-based
A. baumannii = assay: Italian survey of severe infections 2003, MIC; assay type: cell-based, Acinetobacter baumannii
PSA = settings: background statement, no reference given; cited from earlier work
B.cepacia = assay: Italian survey of severe infections 2003, MIC; assay type: cell-based, Burkholderia cepacia
Nocardia spp. [6] = assay: E-test on Mueller Hinton agar, 81 clinical isolates; assay type: cell-based; settings: Nocardia
P. aeruginosa = assay type: cell-based, Pseudomonas aeruginosa
K. oxytoca = assay: E-test susceptibility; assay type: cell-based, Klebsiella oxytoca
N. farcinica strain = assay: E-test on Mueller-Hinton agar; assay type: cell-based; settings: Nocardia farcinica
P.aeruginosa = assay: Italian survey of severe infections 2003, MIC; assay type: cell-based, Pseudomonas aeruginosa
Gram-negative rods = assay: Microscan MIC, blood culture isolates; assay type: cell-based
[7] = test system: viridans group streptococci (VGS); assay: MIC; assay type: cell-based
H. influenzae = assay type: cell-based, Haemophilus influenzae
Nocardia spp. [8] = assay: Time-kill at peak-serum concentrations, seven strains; assay type: cell-based; settings: of seven strains; 24, 72 h
Enterobacteriaceae = assay: SMART 2003 Europe, microdilution; assay type: cell-based; settings: 1948 isolates
F. necrophorum = assay: E-test, 13 clinical isolates; assay type: cell-based, Fusobacterium necrophorum; settings: for MIC50 / MIC90: Fusobacterium necrophorum
Acinetobacter = assay: Disk diffusion; assay type: cell-based; settings: 37 isolates selected as resistant to beta-lactams
[9] = test system: Pseudomonas aeruginosa (PSA); assay: Vitek 2 susceptibility, urine isolates of children; assay type: cell-based; settings: both departments
Enterobacter spp = assay: E-test susceptibility; assay type: cell-based
S. pneumoniae [10] = assay: MIC of invasive strains, Saint George Hospital 2001–2004; assay type: cell-based, Streptococcus pneumoniae
nontyphoidal Salmonella = assay: Agar dilution, isolates from chickens 1998–2004; assay type: cell-based, Salmonella spp.; settings: Salmonella
qnrA = qnrA transcription in E. coli transconjugants after quinolone induction; assay type: cell-based, Escherichia coli; settings: 0.4 × MIC
S. pneumoniae [11] = assay: Broth microdilution; assay type: cell-based, Streptococcus pneumoniae; settings: 275 isolates
P. stuartii [12] = assay: E-test MIC and mutant prevention concentration, qnr transconjugand and mutants; settings: Providencia stuartii
[13] = test system: S. enterica serotype Typhimurium; assay: Susceptibility testing of CipR strains from children and exotic pets; assay type: cell-based; settings: Salmonella enterica
Shigella spp. = assay: Disk diffusion, stool isolates Tehran; assay type: cell-based; settings: 96 isolates
Escherichia coli = assay: Vitek 2 susceptibility, urine isolates of children; assay type: cell-based
[14] = test system: P. aeruginosa strains from CF sputa; assay: O-serotyping; assay type: cell-based, Pseudomonas aeruginosa; settings: exposure to 1/2–1/16 MIC (ceftazidime) or 1/2–1/8 MIC (ciprofloxacin)
[15] = test system: S. typhimurium (strain SL1344); assay: Cell envelope proteome; assay type: cell-based, Salmonella typhimurium; settings: 31.2 ng/ml; control 296 ± 77; mean + 1 SD
S. pneumoniae (SPN) = assay: NCCLS broth microdilution, fluoroquinolones 1999–2004; assay type: cell-based, Streptococcus pneumoniae; settings: Streptococcus pneumoniae, read-out: MIC90 during the six years, 1999–2004
[16] = test system: Pseudomonas aeruginosa (PA); assay: MIC; assay type: cell-based
S. aureus [17] = assay: NCCLS broth microdilution, SSTI isolates; assay type: cell-based; settings: Staphylococcus aureus
P. stuartii [18] = assay: Italian survey of severe infections 2003, MIC; assay type: cell-based, Providencia stuartii
S. marcescens = assay: Italian survey of severe infections 2003, MIC; assay type: cell-based, Serratia marcescens
S. pneumoniae [19] = assay type: cell-based, Streptococcus pneumoniae
Escherichia coli (ECO) = assay: Broth microdilution; assay type: cell-based; settings: 2001
Pseudomonas spp. = assay: MIC; assay type: cell-based
M. morganii = assay: Italian survey of severe infections 2003, MIC; assay type: cell-based, Morganella morganii
S. aureus [20] = assay: Italian survey of severe infections 2003, MIC; assay type: cell-based, Staphylococcus aureus
Staphylococcus aureus [21] = assay: EARSS Ireland, invasive isolates; assay type: cell-based; settings: Jan'99–Jun'04, 4786 isolates
[22] = test system: Staphylococcus epidermidis; assay: Broth microdilution and E-test, diabetic foot ulcers; assay type: cell-based; settings: 53 isolates
Staphylococcus aureus [23] = assay: as above; assay type: cell-based; settings: 81 isolates
CoNS = assay: Methicillin resistance, PBSCT patients; assay type: cell-based, Coagulase-negative Staphylococcus
S. aureus [24] = assay: Methicillin resistance, PBSCT patients; assay type: cell-based, Staphylococcus aureus
S. epidermidis = assay: Italian survey of severe infections 2003, MIC; assay type: cell-based, Staphylococcus epidermidis
[25] = ICU, SRGA breakpoints, tigecycline tentative S ≤2 μg/ml

Compound `C[C@@H](O)[C@H]1C(=O)N2C(C(=O)O)=C(SCCN=CN)C[C@H]12` [imipenem] has a Susceptible isolates (E. coli [1]; [25]) of 99%, a Susceptible isolates (E. coli [1]; non ICU) of 100% and a Susceptible isolates (K. pneumoniae [2]; ICU) of 100%. The Susceptible isolates (K. pneumoniae [2]; non ICU) was 99%, the MIC (K. pneumoniae [3]; Klebsiella pneumoniae) was 1 to 8 µg/mL (≈ 3.34 to 26.7 µM) and the per cent susceptible (Klebsiella) was 99%. The per cent susceptible (E. coli [4]) was 100%, the “% susceptible” value ([5]; A/P (N = 200)) was 99% and the “% susceptible” value ([5]; EU (N = 354)) was 98%. The “% susceptible” value ([5]; LA (N=113)) was 98%, the “% susceptible” value ([5]; NA (N = 163)) was 98% and the resistance (A. baumannii) was 22.5%. The MIC50 (PSA) was 1 µg/mL (≈ 3.34 µM), the resistance (B.cepacia) was 71.4% and the MIC50 (Nocardia spp. [6]) was 0.5 µg/mL (≈ 1.67 µM). The MIC90 (Nocardia spp. [6]) was 2 µg/mL (≈ 6.68 µM), the resistant (P. aeruginosa) was 42% and the Susceptible isolates (K. oxytoca; ICU) was 100/100%. The Susceptible isolates (K. oxytoca; non ICU) was 100/100%, the MIC (N. farcinica strain) was > 32 µg/mL and the resistance (P.aeruginosa) was 11.9%. For the same compound, the “susceptible strains (n/N)” value (Gram-negative rods) was 15/16, the MIC50 [7] was 0.015 µg/mL (≈ 0.0501 µM) and the MIC90 [7] was 0.12 µg/mL (≈ 0.401 µM). The resistant (H. influenzae) was 0%, the “strains with bactericidal activity (≥3 log10 cfu/ml decrease)” value (Nocardia spp. [8]) was 4 strains and the per cent susceptible (Enterobacteriaceae) was >99%. For the same compound, the MIC range (F. necrophorum) was 0.004 to 32 µg/mL, the MIC50 (F. necrophorum) was 1.5 µg/mL (≈ 5.01 µM) and the MIC90 (F. necrophorum) was > 32 µg/mL. For the same compound, the resistant isolates (Acinetobacter) was 0.0%, the Susceptible isolates [9] was 74-100% and the Susceptible isolates (Enterobacter spp; ICU) was 96%. For the same compound, the Susceptible isolates (Enterobacter spp; non ICU) was 98%, the “% S” value (S. pneumoniae [10]) was 100% and the “%R” value (S. pneumoniae [10]) was 0%.
With `O=C(O)c1cn(C2CC2)c2cc(N3CCNCC3)c(F)cc2c1=O` [ciprofloxacin] the susceptibility category (K. pneumoniae [3]; BSAC) was “resistant”, the per cent susceptible (E. coli [4]) was 80% and the MIC90 (nontyphoidal Salmonella) was ~0.25 µg/mL (≈ 0.754 µM). For the same compound, the “increase of qnrA transcription over baseline” value (“increase of qnrA transcription” for short) (qnrA; transconjugant from 1960) was 2.6 times, the “increase of qnrA transcription” value (qnrA; transconjugant from N5) was 5.1 times and the “increase of qnrA transcription” value (qnrA; transconjugant from UAB1) was 4.3 times. It also gave a Susceptibility (S. pneumoniae [11]) of 94.5%, an MIC (P. stuartii [12]; ATCC29914, P. stuartii ATCC 29914 RifR) of 0.03 µg/mL (≈ 0.0905 µM) and an MIC (P. stuartii [12]; ATCC29914, mutants of ATCC 29914 RifR, SCV, median) of 3 µg/mL (≈ 9.05 µM). The MIC (P. stuartii [12]; TCPs 123 (qnr-positive transconjugand)) was 0.5 µg/mL (≈ 1.51 µM), the MIC (P. stuartii [12]; mutants of TCPs 123, SCV, median) was > 32 µg/mL and the MIC (P. stuartii [12]; mutants of TCPs 123, normal colony size, median) was 6 µg/mL (≈ 18.1 µM). For the same compound, the MIC [13] was ≥ 16 µg/mL, the sensitive (Shigella spp.) was 100% and the intermediate susceptible (H. influenzae) was 2.4%. For the same compound, the per cent susceptible (Enterobacteriaceae) was 84%, the susceptibility rate (Escherichia coli; paediatric surgical unit (PSU)) was 96% and the susceptibility rate (Escherichia coli; paediatric units (PU)) was 100%. The “change of agglutination type of nine monoagglutinable strains” value [14] was “five out of nine strains”, the “number of proteins detected in 2D gels” value [15] was 153 ± 36 and the MIC90 (S. pneumoniae (SPN)) was 2 µg/mL (≈ 6.04 µM). For the same compound, the “isolates with MPC ≤ 2 μg/ml” value [16] was 79%, the MPC range ([16]; 10 billion organisms on agar) was 1 to 4 µg/mL and the MIC range ([16]; patients P1 and P2) was 0.031 to 1 µg/mL. It also gave an MIC50 (S. aureus [17]) of 0.25 µg/mL (≈ 0.754 µM).
With `CO/N=C(\C(=O)N[C@@H]1C(=O)N2C(C(=O)O)=C(COC(C)=O)CS[C@H]12)c1csc(N)n1` [cefotaxime] the Susceptible isolates (E. coli [1]; [25]) was 98%, the Susceptible isolates (E. coli [1]; non ICU) was 99% and the Susceptible isolates (K. pneumoniae [2]; ICU) was 98%. It also gave a Susceptible isolates (K. pneumoniae [2]; non ICU) of 100%, a resistance (P. stuartii [18]) of 84.5% and an MIC50 (nontyphoidal Salmonella; read-out: MIC 50/90) of 0.12 to 0.25 µg/mL (≈ 0.263 to 0.549 µM). It also gave a resistance (S. marcescens) of 13.2%, a sensitive (Shigella spp.) of 100% and a resistant (H. influenzae) of 0%. It also gave an MIC range (F. necrophorum) of 0.016 to 256 µg/mL, an MIC50 (F. necrophorum) of 0.016 µg/mL (≈ 0.0351 µM) and an MIC90 (F. necrophorum) of 0.064 µg/mL (≈ 0.141 µM). For the same compound, the resistant isolates (Acinetobacter) was 75.7%, the resistant (S. pneumoniae [19]) was 0% and the susceptible (Escherichia coli (ECO); NAL-resistant isolates) was 89.9%. The susceptible (Escherichia coli (ECO); NAL-susceptible isolates) was 99.2%, the resistant strains (Pseudomonas spp.) was 90% and the “% S” value (S. pneumoniae [10]) was 95.2%. The “%R” value (S. pneumoniae [10]) was 4.8% and the resistance (M. morganii) was 14,3%.
With `COc1cccc(OC)c1C(=O)N[C@@H]1C(=O)N2[C@@H]1SC(C)(C)[C@@H]2C(=O)O` [methicillin] the resistance (S. aureus [20]) was 37.1%, the resistant isolates (Staphylococcus aureus [21]) was 41.4% and the resistant isolates [22] was 35.8%. The resistant isolates (Staphylococcus aureus [23]) was 27.2%, the resistance (CoNS) was 86.5% and the resistance (S. aureus [24]) was 47.4%. It also gave a resistance (S. epidermidis) of 86.7%.

Source: paper PMC7129073 (Clinical Microbiology and Infection, 2015)
